# Data reported in PubChem BioAssay AID1963966 (Molecular Pharmacology Branch, DTP, NCI, 2024).
# Tested on: 935938-334-R-J1-PDC spheroids with HUVEC/MSC, viability
# Test: Anticancer human tumor 935938-334-R-J1-PDC patient-derived small intestine adenocarcinoma cell line growth inhibition [PI3K]
# Conditions: for IC50: curve of first compound; for viability, T/C: stronger effect = lower value
# Procedure, shortened: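 High-throughput combination screen: PI3K inhibitors crossed with targeted small molecules on complex spheroids of tumor cells, HUVEC and MSCs at 37 degrees C, 5% CO2. Top concentration was at or near clinical Cmax (otherwise 10 microM), with half-log decrements.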
# [1] = second compound 0.0316 µM, first compound 0.0316 µM
# [2] = second compound 0.0316 µM, first compound 0.1 µM
# [3] = second compound 0.0316 µM, first compound 0.316 µM
# [4] = second compound 0.0316 µM, first compound 1 µM
# [5] = second compound 0.0316 µM, first compound 3.16 µM
# [6] = second compound 0.0316 µM, first compound 10 µM
# [7] = second compound 0.1 µM, first compound 0.0316 µM
# [8] = second compound 0.1 µM, first compound 0.1 µM
# [9] = second compound 0.1 µM, first compound 0.316 µM
# [10] = second compound 0.1 µM, first compound 1 µM
# [11] = second compound 0.1 µM, first compound 3.16 µM
# [12] = second compound 0.1 µM, first compound 10 µM
# [13] = second compound 0.316 µM, first compound 0.0316 µM
# [14] = second compound 0.316 µM, first compound 0.1 µM
# [15] = second compound 0.316 µM, first compound 0.316 µM
# [16] = second compound 0.316 µM, first compound 1 µM
# [17] = second compound 0.316 µM, first compound 3.16 µM
# [18] = second compound 0.316 µM, first compound 10 µM
# [19] = second compound 1 µM, first compound 0.0316 µM
# [20] = second compound 1 µM, first compound 0.1 µM
# [21] = second compound 1 µM, first compound 0.316 µM
# [22] = second compound 1 µM, first compound 1 µM
# [23] = second compound 1 µM, first compound 3.16 µM
# [24] = second compound 1 µM, first compound 10 µM
# [25] = second compound 3.16 µM, first compound 0.0316 µM
# [26] = second compound 3.16 µM, first compound 0.1 µM
# [27] = second compound 3.16 µM, first compound 0.316 µM
# [28] = second compound 3.16 µM, first compound 1 µM
# [29] = second compound 3.16 µM, first compound 3.16 µM
# [30] = second compound 3.16 µM, first compound 10 µM
# [31] = second compound 10 µM, first compound 0.0316 µM
# [32] = second compound 10 µM, first compound 0.1 µM
# [33] = second compound 10 µM, first compound 0.316 µM
# [34] = second compound 10 µM, first compound 1 µM
# [35] = second compound 10 µM, first compound 3.16 µM
# [36] = second compound 10 µM, first compound 10 µM
# 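Also: compound exposure lasted seven days before viability was read.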
# 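For viability, T/C in this document: percent of vehicle DMSO treated spheroid viability so 100% = untreated.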
compound,measurement,setting,value
C#Cc1c(F)ccc2cc(O)cc(-c3ncc4c(N5CC6CCC(C5)N6)nc(OCC56CCCN5CC(F)C6)nc4c3F)c12 (centres undefined) + Cc1nc(NC(=O)N2CCCC2C(N)=O)sc1-c1ccnc(C(C)(C)C(F)(F)F)c1,IC50,second compound 0.0316 µM,987 nM
same,IC50,second compound 0.1 µM,1870 nM
same,IC50,second compound 0.316 µM,1490 nM
same,IC50,second compound 1 µM,528 nM
same,IC50,second compound 3.16 µM,48.9 nM
same,IC50,second compound 10 µM,< 31.6 nM
same,"viability, T/C",[1],101%
same,"viability, T/C",[2],89.2%
same,"viability, T/C",[3],107%
same,"viability, T/C",[4],49.4%
same,"viability, T/C",[5],36.8%
same,"viability, T/C",[6],32.7%
same,"viability, T/C",[7],88.8%
same,"viability, T/C",[8],73.6%
same,"viability, T/C",[9],79%
same,"viability, T/C",[10],60%
same,"viability, T/C",[11],40.7%
same,"viability, T/C",[12],27.6%
same,"viability, T/C",[13],94.4%
same,"viability, T/C",[14],80%
same,"viability, T/C",[15],77.3%
same,"viability, T/C",[16],59.5%
same,"viability, T/C",[17],33.4%
same,"viability, T/C",[18],29.4%
same,"viability, T/C",[19],76.5%
same,"viability, T/C",[20],85.9%
same,"viability, T/C",[21],60.4%
same,"viability, T/C",[22],35.4%
same,"viability, T/C",[23],29.3%
same,"viability, T/C",[24],21.1%
same,"viability, T/C",[25],51.5%
same,"viability, T/C",[26],46.5%
same,"viability, T/C",[27],40.7%
same,"viability, T/C",[28],30.8%
same,"viability, T/C",[29],25.7%
same,"viability, T/C",[30],23.4%
same,"viability, T/C",[31],47.8%
same,"viability, T/C",[32],33.2%
same,"viability, T/C",[33],36.8%
same,"viability, T/C",[34],27.6%
same,"viability, T/C",[35],17.3%
same,"viability, T/C",[36],16%
CC1(C)CCC(Nc2ncc(C(F)(F)F)c(-c3c[nH]c4c(P(C)(C)=O)c(C#N)ccc34)n2)CN1 (centres undefined) + Cc1nc(NC(=O)N2CCCC2C(N)=O)sc1-c1ccnc(C(C)(C)C(F)(F)F)c1,IC50,second compound 0.0316 µM,< 31.6 nM
same,IC50,second compound 0.1 µM,< 31.6 nM
same,IC50,second compound 0.316 µM,< 31.6 nM
same,IC50,second compound 1 µM,< 31.6 nM
same,IC50,second compound 3.16 µM,< 31.6 nM
same,IC50,second compound 10 µM,< 31.6 nM
same,"viability, T/C",[1],31.4%
same,"viability, T/C",[2],24.9%
same,"viability, T/C",[3],39.4%
same,"viability, T/C",[4],33.7%
same,"viability, T/C",[5],30.8%
same,"viability, T/C",[6],5.69%
same,"viability, T/C",[7],33.6%
same,"viability, T/C",[8],34.4%
same,"viability, T/C",[9],31.6%
same,"viability, T/C",[10],32.3%
same,"viability, T/C",[11],36.3%
same,"viability, T/C",[12],6.9%
same,"viability, T/C",[13],34.6%
same,"viability, T/C",[14],34.5%
same,"viability, T/C",[15],26.2%
same,"viability, T/C",[16],29.6%
same,"viability, T/C",[17],27.6%
same,"viability, T/C",[18],6.74%
same,"viability, T/C",[19],38.3%
same,"viability, T/C",[20],26.2%
same,"viability, T/C",[21],23.7%
same,"viability, T/C",[22],20.8%
same,"viability, T/C",[23],23.7%
same,"viability, T/C",[24],4.15%
same,"viability, T/C",[25],24.6%
same,"viability, T/C",[26],22.6%
same,"viability, T/C",[27],24.5%
same,"viability, T/C",[28],25.2%
same,"viability, T/C",[29],25.2%
same,"viability, T/C",[30],3.91%
same,"viability, T/C",[31],25.6%
same,"viability, T/C",[32],23.8%
same,"viability, T/C",[33],26.2%
same,"viability, T/C",[34],24.7%
same,"viability, T/C",[35],19.9%
same,"viability, T/C",[36],2.1%
